# Like-named read-outs stand apart in the source and are kept apart here.
# What was measured:
# [1] = From the text: Various materials used to manufacture a cell culture device have been tested. One material used for the cell culture device, PEEK, is a strong plastic polymer that is resistant to wear. PEEK is advantageous in drug testing because it is non-absorbent as opposed to, for example, the commonly used poly(dimethylsiloxane) (PDMS), which is known to retain small hydrophobic molecules, such as nicotine. PEEK has been found not to retain nicotine or NNK, another small hydrophobic molecule. Therefore, the cell culture device is suitable for the testing of drug effects on the tissues housed within the cell culture device without risk of the drug concentration (or concentration of its metabolites) being altered by the material.
# PEEK has the advantage of not being absorbent towards small molecules. […] This is important since materials used for commercially available plates such as PDMS are known to trap small hydrophobic molecules.
# [2] = PDMS plate, 8 hours incubation at 4° C.
SMILES,absorbance of PEEK towards the molecule (trapping by the material) [1],amount of nicotine remaining in the plate ([1]; 8 h),amount of nicotine remaining in the plate [2]
"CN(CCCC(=O)c1cccnc1)N=O [NNK, 4-(methylnitrosamino)-1-(3-pyridyl)-1-butanone]",not trapped by the material,–,–
CN1CCCC1c1cccnc1 (stereo not shown) [nicotine],not trapped by the material,about 100%,about 35%
